According to PubChem BioAssay AID330 (DTP/NCI, 2004):
Values joined by “and” are separate entries in the source; they are usually repeats but may differ in a detail not shown here. Identical values can stand only once. Toxic doses and inconclusive results are not listed. Rule for the calls: active = survival T/C of 150% or more; inactive = T/C below 125% in these data.

System: P388 leukemia ip, CD2F1 mice, survival T/C
Test: NCI In Vivo Anticancer Drug Screen. Data for tumor model P388 Leukemia (intraperitoneal) in CD2F1 (CDF1) mice
Details: endpoint: median survival time, higher = longer survival
In short: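 Mice carrying the transplanted tumor received test compound or vehicle. Survival was recorded in each group, and the value is the treated-group measurement divided by that of the vehicle-treated control group.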

[1] = dose: 60.0 mg/kg/injection, schedule: Q01DX005 (ip), vehicle: saline with Tween-80
[2] = dose: 120.0 mg/kg/injection, schedule: Q01DX005 (ip), vehicle: saline with Tween-80
[3] = dose: 240.0 mg/kg/injection, schedule: Q01DX005 (ip), vehicle: saline with Tween-80
[4] = dose: 12.5 mg/kg/injection, schedule: Q01DX009 (ip), vehicle: saline
[5] = dose: 25.0 mg/kg/injection, schedule: Q01DX009 (ip), vehicle: saline
[6] = dose: 100.0 mg/kg/injection, schedule: Q01DX009 (ip), vehicle: Klucel (hydroxypropylcellulose) (HPC)
[7] = dose: 50.0 mg/kg/injection, schedule: Q01DX005 (ip), vehicle: saline with Tween-80
[8] = dose: 100.0 mg/kg/injection, schedule: Q01DX005 (ip), vehicle: saline with Tween-80
[9] = dose: 200.0 mg/kg/injection, schedule: Q01DX005 (ip), vehicle: saline with Tween-80
[10] = dose: 60.0 mg/kg/injection, schedule: Q01DX005 (ip), vehicle: saline
[11] = dose: 120.0 mg/kg/injection, schedule: Q01DX005 (ip), vehicle: saline
[12] = dose: 240.0 mg/kg/injection, schedule: Q01DX005 (ip), vehicle: saline
[13] = dose: 12.5 mg/kg/injection, schedule: Q01DX009 (ip), vehicle: water
[14] = dose: 25.0 mg/kg/injection, schedule: Q01DX009 (ip), vehicle: water
[15] = dose: 50.0 mg/kg/injection, schedule: Q01DX009 (ip), vehicle: water
[16] = dose: 100.0 mg/kg/injection, schedule: Q01DX009 (ip), vehicle: water
[17] = dose: 200.0 mg/kg/injection, schedule: Q01DX009 (ip), vehicle: water
[18] = dose: 100.0 mg/kg/injection, schedule: Q04DX002 (ip), vehicle: Klucel (hydroxypropylcellulose) (HPC)
[19] = dose: 200.0 mg/kg/injection, schedule: Q04DX002 (ip), vehicle: Klucel (hydroxypropylcellulose) (HPC)
[20] = dose: 400.0 mg/kg/injection, schedule: Q04DX002 (ip), vehicle: Klucel (hydroxypropylcellulose) (HPC)
[21] = dose: 100.0 mg/kg/injection, schedule: Q01DX001 (ip), vehicle: saline with Tween-80
[22] = dose: 200.0 mg/kg/injection, schedule: Q01DX001 (ip), vehicle: saline with Tween-80

Measured: T/C

Clc1ccc(C2=NON(c3ncccn3)C3N=CC=CN23)cc1 (stereo not drawn)
inactive: [1] 87 % of control | [2] 91 % of control | [3] 99 % of control

Cc1cc(/C=C\c2ccc3ccccc3[n+]2C)c(O)c2ncccc12
inactive: dose: 12.5 mg/kg/injection, schedule: Q01DX009 (ip), vehicle: saline with Tween-80 114 % of control | dose: 25.0 mg/kg/injection, schedule: Q01DX009 (ip), vehicle: saline with Tween-80 106 % of control

CCOC(=O)c1conc1C
inactive: [4] 112 % of control | [5] 106 % of control | dose: 50.0 mg/kg/injection, schedule: Q01DX009 (ip), vehicle: saline 101 % of control and 103 % of control

CCOC=Nc1c(N)ncnc1Cl
inactive: [6] 102 % of control | dose: 200.0 mg/kg/injection, schedule: Q01DX009 (ip), vehicle: Klucel (hydroxypropylcellulose) (HPC) 105 % of control | dose: 400.0 mg/kg/injection, schedule: Q01DX009 (ip), vehicle: Klucel (hydroxypropylcellulose) (HPC) 106 % of control

CCN(CC)CCCNCc1cc(-c2ccccc2)nc2cc(Cl)ccc12
inactive: [7] 102 % of control | [8] 100 % of control | [9] 100 % of control

CN(C)c1ccccc1[Si](C)(C)N(C)C
inactive: [10] 103 % of control | [11] 103 % of control | [12] 106 % of control

CCOC(=O)C1=C(O)C(=O)C=C(O)C1=N
inactive: [10] 94 % of control | [11] 94 % of control | [12] 97 % of control

COc1cccc2c1C(=O)c1c(O)c3c(c(O)c1C2=O)CC(O)(c1cscn1)CC3O (stereo not drawn)
inactive: dose: 1.56 mg/kg/injection, schedule: Q01DX009 (ip), vehicle: other 104 % of control | dose: 3.13 mg/kg/injection, schedule: Q01DX009 (ip), vehicle: other 107 % of control | dose: 6.25 mg/kg/injection, schedule: Q01DX009 (ip), vehicle: other 101 % of control | dose: 12.5 mg/kg/injection, schedule: Q01DX009 (ip), vehicle: other 105 % of control | dose: 25.0 mg/kg/injection, schedule: Q01DX009 (ip), vehicle: other 104 % of control | dose: 50.0 mg/kg/injection, schedule: Q01DX009 (ip), vehicle: other 113 % of control

COC(=O)C(N)CCl (stereo not drawn)
inactive: [13] 91 % of control | [14] 92 % of control | [15] 90 % of control | [16] 99 % of control | [17] 90 % of control

O=C1SCCC1CO (stereo not drawn)
inactive: dose: 25.0 mg/kg/injection, schedule: Q04DX003 (ip), vehicle: saline 100 % of control | dose: 50.0 mg/kg/injection, schedule: Q04DX003 (ip), vehicle: saline 106 % of control

O=C(O)CCc1nc(-c2ccccc2-n2cccc2)no1
inactive: dose: 50.0 mg/kg/injection, schedule: Q01DX009 (ip), vehicle: saline with Tween-80 96 % of control | dose: 100.0 mg/kg/injection, schedule: Q01DX009 (ip), vehicle: saline with Tween-80 102 % of control

COc1cc(C(=O)NCCS(=O)(=O)O)cc(OC)c1OC
inactive: dose: 100.0 mg/kg/injection, schedule: Q01DX009 (ip), vehicle: saline 109 % of control | dose: 200.0 mg/kg/injection, schedule: Q01DX009 (ip), vehicle: saline 109 % of control | dose: 400.0 mg/kg/injection, schedule: Q01DX009 (ip), vehicle: saline 105 % of control

CC1=NN(C(=O)c2ccccc2)C(=O)C1N=Nc1ccc(S(N)(=O)=O)cc1 (stereo not drawn)
inactive: dose: 50.0 mg/kg/injection, schedule: Q01DX001 (ip), vehicle: Klucel (hydroxypropylcellulose) (HPC) 101 % of control | dose: 100.0 mg/kg/injection, schedule: Q01DX001 (ip), vehicle: Klucel (hydroxypropylcellulose) (HPC) 94 % of control | dose: 200.0 mg/kg/injection, schedule: Q01DX001 (ip), vehicle: Klucel (hydroxypropylcellulose) (HPC) 96 % of control | dose: 400.0 mg/kg/injection, schedule: Q01DX001 (ip), vehicle: Klucel (hydroxypropylcellulose) (HPC) 90 % of control

CCC[CH2][Sn]1([CH2]CCC)[S]CC[N]1S(=O)(=O)c1ccc(C)cc1
inactive: dose: 1.0 mg/kg/injection, schedule: Q01DX009 (ip), vehicle: gum acacia 114 % of control | dose: 1.5 mg/kg/injection, schedule: Q01DX009 (ip), vehicle: gum acacia 106 % of control | dose: 2.25 mg/kg/injection, schedule: Q01DX009 (ip), vehicle: gum acacia 120 % of control

COc1nsc2ccc(C(C)C(N)=O)cc12 (stereo not drawn)
inactive: [1] 100 % of control | [2] 97 % of control | [3] 89 % of control

CCOC(=O)c1cnc2cc3c(cc2c1Nc1ccccc1)OCO3
inactive: dose: 60.0 mg/kg/injection, schedule: Q01DX005 (ip), vehicle: Klucel (hydroxypropylcellulose) (HPC) 94 % of control | dose: 120.0 mg/kg/injection, schedule: Q01DX005 (ip), vehicle: Klucel (hydroxypropylcellulose) (HPC) 99 % of control | dose: 240.0 mg/kg/injection, schedule: Q01DX005 (ip), vehicle: Klucel (hydroxypropylcellulose) (HPC) 95 % of control

CCOC(=O)Cc1csc(=S)n1Cc1ccccc1
inactive: [7] 103 % of control | [8] 108 % of control | [9] 95 % of control

COc1cc(OC)c(NC(=O)Oc2cc(C)c(I)cc2C)cc1Cl
inactive: dose: 6.25 mg/kg/injection, schedule: Q01DX009 (ip), vehicle: saline 118 % of control | [4] 96 % of control | [5] 93 % of control | dose: 100.0 mg/kg/injection, schedule: Q01DX009 (ip), vehicle: saline + alcohol 98 % of control | dose: 200.0 mg/kg/injection, schedule: Q01DX009 (ip), vehicle: saline + alcohol 95 % of control

O=C1CCCC2c3[nH]c4ccccc4c3CCN12 (stereo not drawn)
inactive: [18] 97 % of control | [19] 100 % of control | [20] 96 % of control

Cc1cc(-c2c(C)[nH]n(-c3nc4ccc(F)cc4s3)c2=O)n(-c2nc3ccc(F)cc3s2)n1
inactive: dose: 15.0 mg/kg/injection, schedule: Q01DX005 (ip), vehicle: saline with Tween-80 96 % of control | dose: 30.0 mg/kg/injection, schedule: Q01DX005 (ip), vehicle: saline with Tween-80 95 % of control | [1] 100 % of control and 92 % of control

CCOC(=O)c1nc(C)nc(N)c1C
inactive: [13] 102 % of control | [14] 91 % of control | [15] 93 % of control | [16] 100 % of control | [17] 100 % of control

O=[N+]([O-])c1cccc(SNSc2cccc([N+](=O)[O-])c2)c1
inactive: [18] 90 % of control | [19] 88 % of control | [20] 94 % of control

CC1CCC[N+](C)([B-](F)(F)F)C1 (stereo not drawn)
inactive: dose: 50.0 mg/kg/injection, schedule: Q01DX005 (ip), vehicle: saline 100 % of control | dose: 100.0 mg/kg/injection, schedule: Q01DX005 (ip), vehicle: saline 100 % of control

C[C@]12CC[C@H](OC(=O)/C=C\c3ccccc3N(CCCl)CCCl)CC1CC[C@@H]1C2CC[C@]2(C)NC(=O)CCC12 (stereo partly drawn)
inactive: [21] 105 % of control and 120 % of control | [22] 118 % of control

Cc1ccc2ncc([N+](=O)[O-])n2c1
inactive: dose: 50.0 mg/kg/injection, schedule: Q01DX001 (ip), vehicle: saline with Tween-80 94 % of control | [21] 97 % of control | [22] 90 % of control | dose: 400.0 mg/kg/injection, schedule: Q01DX001 (ip), vehicle: saline with Tween-80 94 % of control

N=C(N)c1ccc2oc(CCc3cc4ccc(C(=N)N)cc4[nH]3)cc2c1
inactive: dose: 3.12 mg/kg/injection, schedule: Q04DX003 (ip), vehicle: suspension in saline 100 % of control | dose: 6.25 mg/kg/injection, schedule: Q04DX003 (ip), vehicle: suspension in saline 113 % of control | dose: 12.5 mg/kg/injection, schedule: Q04DX003 (ip), vehicle: suspension in saline 110 % of control

Nc1nc(=S)ss1
inactive: dose: 12.5 mg/kg/injection, schedule: Q01DX009 (ip), vehicle: Klucel (hydroxypropylcellulose) (HPC) 116 % of control and 98 % of control | dose: 25.0 mg/kg/injection, schedule: Q01DX009 (ip), vehicle: Klucel (hydroxypropylcellulose) (HPC) 107 % of control and 111 % of control | dose: 50.0 mg/kg/injection, schedule: Q01DX009 (ip), vehicle: Klucel (hydroxypropylcellulose) (HPC) 109 % of control and 119 % of control | [6] 109 % of control
